Test results: ChEMBL document CHEMBL1146897, “A chloroquine-like molecule designed to reverse resistance in Plasmodium falciparum” (J Med Chem, 2006)

Legend:
Plasmodium falciparum [1] = assay: Antimalarial activity against chloroquine-sensitive Plasmodium falciparum D6; type: functional, organism-based
Plasmodium falciparum [2] = assay: Antimalarial activity against chloroquine-resistant Plasmodium falciparum Dd2; type: functional, organism-based
Plasmodium chabaudi = assay: Antimalarial activity in Plasmodium chabaudi infected CF1 mice (Mus musculus) at 64 mg/kg over 4 days

Question: With `CN(CCCNc1ccnc2cc(Cl)ccc12)CCCN1c2ccccc2CCc2ccccc21` as the compound, how does the IC50 (Plasmodium falciparum [1]) read?
Answer: 2.9 nM

Question: What about the IC50 (Plasmodium falciparum [2]) of the same compound?
Answer: 5.3 nM

Question: And the Activity (Plasmodium chabaudi)?
Answer: >99%
